Reference: ChEMBL document CHEMBL1135696, “Isotopic effect study of propofol deuteration on the metabolism, activity, and toxicity of the anesthetic” (J Med Chem, 2002)

Columns and labels:
[1] = in vivo; conditions: mouse, 24 mg/kg
Description: Therapeutic index (24 mg/kg) in mice (in vivo)

[2] = Kinetic parameter, Km on human hepatic microsomes.; conditions: liver microsomes
[3] = Lethal Dose in mice (in vivo); conditions: mouse

Structure (SMILES) | selectivity ratio [1] | Km [2] | LD50 [3]
[2H]c1cc(C(C)C)c(O)c(C(C)C)c1 [MONODEUTERATED PROPOFOL] | 3 | 16.7 µM | 39 mg/kg
CC(C)c1cccc(C(C)C)c1O [PROPOFOL] | 2.1 | 12.3 µM | 32 mg/kg
[2H]c1c([2H])c(C(C)C)c(O)c(C(C)C)c1[2H] [TRIDEUTERATED PROPOFOL] | 2.7 | 16.4 µM | 35 mg/kg
